Source: the supplement of paper PMC11821682

What was measured:
[1] = tested on: Danio rerio embryo; assay: LEL embryonic photomotor response 24 hpf
[2] = tested on: Danio rerio embryo; assay: BMC10 mortality 24-120 hpf; higher = less toxic
Protocol: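 ZBEscreen: dechorionated Tropical 5D zebrafish embryos were exposed from 4 hpf in 96-well plates (1% DMSO, 28 °C). All compounds were first tested at 100 µM; hits were retested at 0.005-100 µM. Morphology and mortality were scored at 120 hpf and fitted as BMC10 (3-parameter log-logistic, extra risk). The embryonic photomotor response at 24 hpf and the larval photomotor response at 120 hpf are given as lowest effect levels (K-S test, p<0.01). NA = not significant up to 100 µM; NT = not tested.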

[3] = tested on: Danio rerio embryo; assay: LEL larval photomotor response dark phase 120 hpf
[4] = tested on: Danio rerio embryo; assay: BMC10 any morphological effect or mortality at 120 hpf; higher = less toxic
[5] = tested on: HL-60; assay: Cell Health Index (toxicity pseudo-probability over dose series) (index 0-1); higher = more cytotoxic / cell stress;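 also: HL-60 cells exposed 4 h at 37 °C to ten threefold dilutions spanning 5 nM to 100 µM, multiparametric flow cytometry features scored by machine-learning classification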

Row | Structure (SMILES) | LEL embryonic photomotor response 24 hpf [1] [µM] | BMC10 mortality 24-120 hpf [2] [µM] | LEL larval photomotor response dark phase 120 hpf [3] [µM] | BMC10 any morphological effect or mortality [4] [µM] | Cell Health Index [5]
1 | O=c1cc(-c2cccc3c2Sc2ccccc2S3)oc(N2CCOCC2)c1 | 11.1 | 9.46 | > 100 | 5.74 | 0.663
2 | CCCCCCCC/C=C\CCCCCCCCCCCCCC(=O)O [Nervonic acid] | > 100 | 31 | > 100 | 30.9 | 0.175
3 | O=C1Nc2ccc(Cl)cc2[C@@](C#CC2CC2)(C(F)(F)F)O1 [Efavirenz] | 3.7 | 12 | > 100 | 1.3 | 0.874
4 | COc1ccccc1NC(=O)c1ccccc1Sc1ccc([N+](=O)[O-])cc1 [RN-18] | 11.1 | 11.8 | > 100 | 10 | 0.491
5 | CC1(C)C=Cc2c(ccc3c2OC[C@@H](c2ccc(O)cc2O)C3)O1 [Glabridin] | 11.1 | 9.73 | > 100 | 3.57 | 0.58
6 | COc1ccc(-c2oc3cc(OC)c(OC)c(O)c3c(=O)c2OC)cc1O [Casticin] | 3.7 | 1.28 | > 100 | 1.26 | 0.355
7 | CCCCCCCCCCCCCCCC[n+]1ccn(Cc2ccccc2)c1C.[I-] [NH125 parent] | 33.3 | 8.53 | > 100 | 7.19 | 0.949
8 | COc1ccc2cc1Oc1ccc(cc1)C[C@H]1c3cc(c(OC)cc3CCN1C)Oc1c(O)c(OC)cc3c1[C@H](C2)N(C)CC3 [Fangchinoline] | > 100 | 46.2 | > 100 | 6.15 | 0.884
9 | CCN(CC)CCOc1ccc2c(c1)C(=O)c1cc(OCCN(CC)CC)ccc1-2.Cl.Cl [Tilorone] | > 100 | 9.79 | > 100 | 3.55 | 0.506
10 | C[C@]12CC[C@H](O)C[C@H]1CC[C@@H]1[C@@H]2CC[C@]2(C)[C@@H](c3ccc(=O)oc3)C[C@H]3O[C@]132 [Bufogenin] | 11.1 | 1.41 | > 100 | 2.23 | 0.504
11 | Cc1ccc2c(c1)c1c3n2CCNC3CCC1 (stereo not given) [Pirlindole] | 33.3 | 12 | > 100 | 5.42 | 0.298
12 | CC[C@H](C)[C@H]1O[C@]2(CC[C@@H]1C)C[C@@H]1C[C@@H](C/C=C(\C)[C@@H](O[C@H]3C[C@H](OC)[C@@H](O[C@H]4C[C@H](OC)[C@@H](O)[C@H](C)O4)[C@H](C)O3)[C@@H](C)/C=C/C=C3\CO[C@@H]4[C@H](O)C(C)=C[C@@H](C(=O)O1)[C@]34O)O2 [Ivermectin B1a] | 1.23 | 4.04 | 0.41 | 0.156 | 0.687
13 | C[C@H]1[C@H](OC(=O)CCC(=O)O)O[C@@H]2O[C@@]3(C)CC[C@H]4[C@H](C)CC[C@@H]1[C@@]24OO3 [Artesunate] | > 100 | 9.08 | > 100 | 7.91 | 0.146
14 | C=CC(C)(C)c1cc(/C=C/C(=O)c2ccc(O)cc2)c(OC)cc1O [Licochalcone A] | 3.7 | 1.16 | > 100 | 0.64 | 0.828
15 | COc1ccc2c(c1)CC[C@@H]1[C@@H]2CC[C@]2(C)[C@@H](NCCCCCCN3C(=O)C=CC3=O)CC[C@@H]12 | 11.1 | 0.101 | > 100 | 0.134 | 0.348
16 | Cc1c(-c2ccc(-c3ccccc3F)cc2)nc2ccc(F)cc2c1C(=O)O [Brequinar] | 11.1 | 1.41 | > 100 | 0.331 | 0.332
17 | CCOC(=O)c1c(CSc2ccccc2)n(C)c2cc(Br)c(O)c(CN(C)C)c12.Cl [Umifenovir] | 3.7 | 6.28 | > 100 | 3.37 | 0.791
18 | COc1c(O)cc2oc(-c3ccccc3)cc(=O)c2c1O [Oroxylin A] | > 100 | 64.9 | > 100 | 27.2 | 0.234
19 | CC(=O)c1c(O)cc(O)c(C(C)=O)c1O [2,4-Diacetylphloroglucinol] | 3.7 | 3.32 | > 100 | 1.45 | 0.669
20 | O=c1cc(-c2ccccc2)oc2cc(O)cc(O)c12 [Chrysin] | 33.3 | 28.3 | 11.1 | 28.6 | 0.435
21 | COC(=O)C[C@](O)(CCC(C)(C)O)C(=O)O[C@@H]1C(OC)=C[C@]23CCCN2CCc2cc4c(cc2[C@H]13)OCO4 [Harringtonine] | 33.3 | 26.6 | > 100 | 10.8 | 0.376
22 | C[C@H]1CCC/C=C/[C@@H]2C[C@H](O)C[C@H]2[C@H](O)/C=C/C(=O)O1 [Brefeldin A] | 11.1 | 3.95 | > 100 | 1.09 | 0.226
23 | C=CC(=O)N1CC/C(=C\c2ccc(F)c([N+](=O)[O-])c2)C(=O)/C(=C/c2ccc(F)c([N+](=O)[O-])c2)C1 [VLX1570] | > 100 | 1.38 | > 100 | 1.26 | 0.884
24 | CC(C)C[C@H](NC(=O)[C@H](Cc1ccccc1)NC(=O)c1cnccn1)B(O)O [Bortezomib] | > 100 | 17.4 | 0.14 | 13.2 | 0.24
25 | CC(C)c1cnn2c(NCc3ccccc3-n3cccn3)nc(OC3CCCNC3)nc12 (stereo not given) [LDC-4297] | 33.3 | 32.8 | > 100 | 15.3 | 0.847
26 | CC(=O)O[C@]1(C(C)=O)CC[C@H]2[C@@H]3C=C(C)C4=CC(=O)CC[C@]4(C)[C@H]3CC[C@@]21C [Megestryl acetate] | 11.1 | 9.53 | > 100 | 4.08 | 0.449
